Paper PMC9122897, “SHR1032, a novel STING agonist, stimulates anti-tumor immunity and directly induces AML apoptosis” (Scientific Reports, 2022)

What was measured:
THP1 reporter cells = assay: THP1 IRF luciferase reporter assay; format: cell-based; conditions: Homo sapiens, THP-1; IRF Lucia luciferase reporter, 24 h; read-out: THP1 reporter cell EC50
Source text: We sought to develop small molecule compounds with increased STING agonist activity against human STING. GSK reported a series of non-CDN small molecules, represented by compound 1[13], with good human STING agonistic activity. Based on our molecular modeling analysis, along with the reported CDN-STING crystal structures, we designed a novel series of fused tricyclic heterocycle compounds and analyzed their binding to human STING with thermal shift assays and the potency in activation of STING signaling with a reporter cellular assay (Supplementary Table S1). Thermal shift assays measure the difference between apo STING and ligand bound STING in the inflection point at which 50% of protein is thermally unfolded (ΔTm). […] The ability of compounds to activate the IRF reporter gene in the THP1 cells was also evaluated.
THP1 reporter cells were treated for 24 h with a total of 100 k cells and 150 ul media in each well a 96-well plate. […] Luminescence signal was measured using Tecan infinite M1000. EC50 values were calculated using non-linear regression analysis of GraphPad Prism. Cell growth was monitored by CellTiter-Glo Luminescent Cell Viability Assay (Promega) per manufacture’s protocol. GI50 values were calculated using non-linear regression analysis of GraphPad Prism. […]

[1] = system: MC38 mouse syngeneic colorectal adenocarcinoma; assay: MC38 syngeneic tumor model; format: in vivo, C57BL/6 mouse
Experimental: Figure 3 Robust cytokine induction and antitumor effects in vivo. (a,b) C57BL/6 mice were inoculated with mouse MC38 colon cancer cells in the left flank. When tumor volumes were 100 mm^3, they received intratumoral (IT) dose of 100 µg of SHR1032 on day 1, 5, 8 and 12 or IT dose of 50 µg ADU-S100 on day 1, 5, and 8, or vehicle, respectively. (a) Tumor volume was measured at different time points. Results are shown as mean tumor volume ± sem. (n = 8 animals per group). (b) Mouse bodyweight was measured at different time points. (c–f) C57BL/6 mice were inoculated with mouse MC38 colon cancer cells in the left flank. When tumor volumes were 100 mm^3, they received one IT dose of 100 µg of SHR1032 or 50 µg ADU-S100, or vehicle. (c) IFNβ, (d) IL-6 and (e) TNFα from both tumor and plasma was measured by ELISA 4 h after. (f) SHR1032 compound concentration in tumors were measured.
(§1) Human and Cynomolgous PBMC’s were thawed and spun down in Lymphocyte media (ZENBIO) and resuspended in media to 1.5 x 10^6 cells/ml density. Mouse RAW 264.7 cells were detached from the flask and resuspended in media to 1.5 x 10^6 cells/ml density. Then, 100 µl of media containing the cells was added to each well of a 96-well plate containing compound in 50 µl of media. Plates were incubated for 5 h at 37 °C and supernatant was collected for ELISA analysis. Human and monkey IFN-β protein concentration was measured using human IFN-β Quantikine ELISA Kits (R&D Systems) per manufacture’s protocol. Mouse IFN-β was measured using mouse IFN-β Quantikine ELISA Kits (R&D Systems) per manufacture’s protocol. Mouse TNFα, IFN-β and IL-6 in the tumor lysates and plasma was measured by Quantikine ELISA Kits (R&D Systems) per manufacture’s protocol.
Female C57BL/6 mice, aged between 8 and 10 weeks old, were purchased from Charles River Lab. MC38 mouse colorectal cancer cells were resuspended as single cell solution in PBS at a concentration of 5 × 10^6 cells/ml. One hundred µl of cell suspension were implanted in the right flank of mice subcutaneously. Tumor size was measured by a caliper in three dimensions and its volume was then calculated according to the following formula: Tumor Volume (mm^3) = l * w * h * 0.5236, where l = length, w = width and h = height in mm for a tumor. When the average tumor volume reached around 100 mm^3, the mice were randomly assigned into three groups (n = 8) and each group of mice received one regimen. This day was assigned as day 0 for the study. […] Tumor volume and body weight were measured 3 times per week throughout the study. […] Cytokines and SHR1032 concentration in the plasma and tumor tissues were analyzed. […]

MV4-11 cells = assay: IFNβ ELISA; format: cell-based, human; conditions: MV4-11, 5 hrs, compared to THP1 cells
Experimental: as §1
(§2) Figure S2. IFNβ measurement in MV4-11, MOLM-16 and THP1-STING-R232 cells treated with SHR1032 for 5 hrs.

MOLM-16 cells = assay: IFNβ ELISA; format: cell-based, human; conditions: MOLM-16, 5 hrs, compared to THP1 cells
Experimental: as §1, §2

## CCn1nc(C)cc1C(=O)Nc1nc2cc(C(N)=O)cc(OC)c2n1CCC[C@H]1COc2cc(C(N)=O)cc3nc(NC(=O)c4cc(C)nn4CC)n1c23 [SHR1032]
THP1 reporter cells
  EC50: 30 nM
[1]; 100 µg intratumorally on day 1, 5, 8 and 12, compared to the control group
  tumor growth inhibition: 78%
[1]; intratumoral, mouse
  mouse pharmacokinetic properties: favorable mouse pharmacokinetic properties
[1]; one IT dose of 100 µg, 4 h post dosing, ELISA
  IFNβ, IL-6 and TNFα induction in tumor and plasma: induced all the three cytokines in both tumors and plasma
MV4-11 cells
  IFNβ production: produced IFNβ, but with a level much lower than that in THP1 cells
MOLM-16 cells
  IFNβ production: produced IFNβ, but with a level much lower than that in THP1 cells
